Read-outs that look alike come from different tables or passages of the source.

Drawing on paper PMC3907537, “Evaluation of the Endothelin Receptor Antagonists Ambrisentan, Bosentan, Macitentan, and Sitaxsentan as Hepatobiliary Transporter Inhibitors and Substrates in Sandwich-Cultured Human Hepatocytes” (PLoS ONE, 2014), this text covers IC50 for three compounds.

The experiment concerns the target T1, OATP1B1 (Homo sapiens, UniProt Q9Y6L6).
T1 construct: host or cells: CHO
T1 sequence (Q9Y6L6 1-691): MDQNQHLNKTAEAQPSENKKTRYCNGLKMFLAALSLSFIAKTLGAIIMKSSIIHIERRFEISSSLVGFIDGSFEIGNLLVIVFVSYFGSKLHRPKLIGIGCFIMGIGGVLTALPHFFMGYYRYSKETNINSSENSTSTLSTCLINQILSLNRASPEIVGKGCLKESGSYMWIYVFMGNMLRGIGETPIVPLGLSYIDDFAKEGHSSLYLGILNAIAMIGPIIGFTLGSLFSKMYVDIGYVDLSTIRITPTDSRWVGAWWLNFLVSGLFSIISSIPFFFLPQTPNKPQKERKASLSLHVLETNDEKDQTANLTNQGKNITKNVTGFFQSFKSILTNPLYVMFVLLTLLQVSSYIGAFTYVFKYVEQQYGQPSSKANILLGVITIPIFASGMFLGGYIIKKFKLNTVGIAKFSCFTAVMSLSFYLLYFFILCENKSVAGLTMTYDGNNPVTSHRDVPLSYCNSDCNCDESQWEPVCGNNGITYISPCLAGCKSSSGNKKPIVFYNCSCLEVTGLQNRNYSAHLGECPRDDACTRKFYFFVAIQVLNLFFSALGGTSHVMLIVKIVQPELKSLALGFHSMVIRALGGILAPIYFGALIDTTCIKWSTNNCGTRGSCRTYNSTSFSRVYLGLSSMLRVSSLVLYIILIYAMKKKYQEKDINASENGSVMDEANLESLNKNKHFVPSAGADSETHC
The experiment can be described thus: OATP1B1 inhibition, Fluo 3 uptake in transfected CHO cells. It counts as cell-based. The source says: Chinese Hamster Ovary (CHO) cells were obtained from Professor B. Stieger’s laboratory at University of Zurich, Zurich, Switzerland. Madin-Darby Canine Kidney strain II (MDCKII) cells were obtained from Nederlands Kanker Instituut (NKI), Amsterdam, Netherlands. NTCP-CHO cells, BSEP and MRP2 membrane vesicles were developed and validated at Solvo Biotechnology, Budaors, Hungary.
CHO cells, either wild type or transfected with the genes encoding human NTCP, OATP1B1 and OATP1B3, were maintained in Dulbecco’s Modification of Eagle’s Medium (DMEM) containing 1,000 mg/L D-glucose, L-glutamine, 25 mM HEPES buffer, 110 mg/L sodium pyruvate, 1% Penicillin/Streptomycin, 10% fetal bovine serum (FBS), 0.05 mg/mL L proline and 0.5 mg/mL of geneticin G-418. Cells were maintained in incubators set at 37°C, 90% humidity and 5% CO2. OATP1B1 and OATP1B3 over-expressing cells were seeded in BioCoat Poly-D-Lysine coated 96-well black cell culture plates with clear bottoms at a density of 1×10^5 cells/well. Sodium butyrate (10 mM) was added to the OATP1B1 and OATP1B3 cells once seeded to increase the protein expression level and the cells were grown to confluence overnight. The assay buffer contained 142 mM NaCl, 5 mM KCl, 1 mM KH2PO4, 1.2 mM MgSO4, 1.5 mM CaCl2, 5 mM Glucose and 12.5 mM HEPES (pH 7.4). After removal of the media and before adding test compounds, the cells were washed twice with 37°C assay buffer followed by a 0.5 h pre-incubation with assay buffer. […] Wells were analyzed for Fluo 3 fluorescence at an excitation of 485 nm and emission of 530 nm. Inhibition of NTCP was studied using similar conditions to those described for OATP1B1 and OATP1B3 except that inhibition of the uptake ^3H taurocholate into transfected CHO cells was monitored using radioactive scintillation counting.
All assays were performed in duplicate. […] IC50 values were calculated using non-linear fitting of % inhibition versus concentration to a sigmoidal curve with a variable Hill Coefficient using GraphPad Prism 5 (GraphPad Software Inc., San Diego, CA).

Setting [1] is: CHO cells, Fluo 3, mean ± SD of 3 independent studies in duplicate, tested 0.14–100 µM, read-out: OATP1B1 IC50.

As for `COC(c1ccccc1)(c1ccccc1)[C@H](Oc1nc(C)cc(C)n1)C(=O)O` [ambrisentan], the midpoint of inhibition, the IC50, lay at 47 ± 21.3 µM.
As to `COc1ccccc1Oc1c(NS(=O)(=O)c2ccc(C(C)(C)C)cc2)nc(-c2ncccn2)nc1OCCO` [bosentan], the IC50 (commonly the concentration at which inhibition is half-maximal) under setting [1] was determined as 5 ± 2 µM.
Same read-out and setting: with `CCCNS(=O)(=O)Nc1ncnc(OCCOc2ncc(Br)cn2)c1-c1ccc(Br)cc1` [macitentan] the figure was 2 ± 0.3 µM.
